Experimental findings from ChEMBL document CHEMBL1201862, “PubChem BioAssay data set” (2004) are described below.

Among the test systems are 786-0; COLO 205; HL-60; IGROV-1; LOX IMVI; M14; MCF7; MDA-MB-435; MDA-N; MOLT-4; Malme-3M; NCI-H23; NCI-H460; PC-3; SF-539; SK-MEL-2; SN12C; SNB-19; TK-10; UACC-257.
What all share (experiment): NCI tumour cell line growth inhibition, 48 h

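Test compounds were applied to cells in 96-well plates for 48 hours at 5 doses. Abbreviation: GI50, concentration required for 50% inhibition of growth.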 The source made the active and inactive calls. No stated cut-off is given here; in the data, active = GI50 up to about 1.1 µM and inactive = higher. Numbered stars: 1 amine (or outer) side, 2 acyl side, 3 side chain; on linkers, the order of the positions; unused ones are H or OH. Square brackets hold non-standard residues; d marks the D form. Peptide text beside a SMILES is read from it. * marks the point of attachment. X30 = CC(=O)N(C)SCC(N[*:1])C(=O)[*:2]; Cbz = O=C(OCc1ccccc1)*; Bn = c1ccc(C*)cc1

As to `CCOC(=O)c1ccc(/N=C/C=C(\Nc2ccc(C(=O)OCC)cc2)C23CC4CC(CC(C4)C2)C3)cc1`, the GI50 was 56.1 µM (inactive) with 786-0; 45 µM (inactive) in the assay with COLO 205; 3.27 µM (inactive) in the assay with HL-60; > 100 µM (inactive) with IGROV-1; 95.3 µM (inactive) with LOX IMVI; 35.8 µM (inactive) in the assay with M14. Moreover, the GI50 was 43.9 µM (inactive) in the assay on MCF7; 89.7 µM (inactive) in the assay with MDA-MB-435; 61.1 µM (inactive) in the assay on MDA-N; < 0.01 µM (active) in the assay on MOLT-4; > 100 µM (inactive) in the assay with Malme-3M; 54 µM (inactive) in the assay on NCI-H23. Further, the GI50 in the assay with NCI-H460 is 42.2 µM (inactive); in the assay on PC-3 it was 51.1 µM (inactive); with SF-539 it was 28.2 µM (inactive); with SK-MEL-2, > 100 µM (inactive); with SN12C, 53.2 µM (inactive); in the assay on SNB-19, > 100 µM (inactive). Also, the values for the GI50 in the assay with TK-10 and in the assay with UACC-257 were 71.6 µM (inactive) and 35.9 µM (inactive), respectively.
Turning to `C#CC1(O)CCC2[C@@H]3CCc4cc(Oc5nc(F)nc(-c6c(C)c(C(=O)OCC)n7ccccc67)n5)ccc4C3CC[C@@]21C` (stereo not given in full), the GI50 in the assay with 786-0, in the assay on COLO 205, with HL-60, in the assay on IGROV-1, in the assay on LOX IMVI and with M14 was > 100 µM (inactive) throughout. Further, the GI50 with MCF7, in the assay on MDA-MB-435, with MDA-N, in the assay with MOLT-4, in the assay on Malme-3M and in the assay with NCI-H23 was > 100 µM (inactive) each time. For the same compound, the GI50 in the assay on NCI-H460, in the assay on PC-3, in the assay with SF-539, in the assay on SK-MEL-2, with SN12C and in the assay on SNB-19 was > 100 µM (inactive) each time. The GI50 in the assay on TK-10 and with UACC-257 was > 100 µM (inactive) each time.
On to `CN(CC#N)C(=O)Cc1ccc([N+](=O)[O-])cc1`, for which the GI50 with 786-0, in the assay on COLO 205, with HL-60, in the assay on IGROV-1, in the assay with LOX IMVI and in the assay with M14 was > 10 µM (inactive) each time. For the same compound, the GI50 in the assay with MCF7, in the assay with MDA-MB-435, in the assay with MDA-N, with MOLT-4, with Malme-3M and in the assay with NCI-H23 was > 10 µM (inactive) in each case. For the same compound, the GI50 with NCI-H460, with PC-3, in the assay with SF-539, with SK-MEL-2, in the assay with SN12C and in the assay with SNB-19 was > 10 µM (inactive) each time. In addition, the GI50 with TK-10 and with UACC-257 was > 10 µM (inactive) throughout.
As to `CC(C)OC(=O)c1ccc(NCc2cc(O)ccc2O)cc1`, the GI50 is 2.84 µM (inactive) in the assay on 786-0; 3.06 µM (inactive) in the assay with COLO 205; 0.462 µM (active) with HL-60; 3.45 µM (inactive) with IGROV-1; 3.4 µM (inactive) in the assay on LOX IMVI; 6.84 µM (inactive) with M14. Moreover, the GI50 was 1.66 µM (inactive) with MCF7; 2.06 µM (inactive) in the assay on MDA-MB-435; 2.52 µM (inactive) with MDA-N; 1.39 µM (inactive) with MOLT-4; 2.16 µM (inactive) with Malme-3M; 4.36 µM (inactive) in the assay with NCI-H23. The GI50 in the assay with NCI-H460 is 11.1 µM (inactive); with PC-3, 1.8 µM (inactive); in the assay on SF-539 it was 1.53 µM (inactive); with SK-MEL-2, 10.9 µM (inactive); with SN12C, 1.71 µM (inactive); in the assay on SNB-19, 3.3 µM (inactive). Besides, the figures for the GI50 in the assay on TK-10 and with UACC-257 were 4.53 µM (inactive) and 10.3 µM (inactive), respectively.
Regarding `CN(C)c1ccc(C2SCC(=O)N2c2ccc(Oc3ccc(Cl)cc3)c(Cl)c2)cc1` (stereo not given), the GI50 was 17.7 µM (inactive) in the assay on 786-0; 20.6 µM (inactive) in the assay on COLO 205; 20.3 µM (inactive) in the assay with HL-60; 22.6 µM (inactive) in the assay on IGROV-1; 18.7 µM (inactive) with LOX IMVI; 28.8 µM (inactive) with M14. The GI50 with MCF7 was 37.2 µM (inactive); in the assay with MDA-MB-435, 22.7 µM (inactive); with MDA-N it was 28.6 µM (inactive); in the assay on MOLT-4, 27.8 µM (inactive); in the assay with Malme-3M, 15.1 µM (inactive); in the assay with NCI-H23 it was 18.5 µM (inactive). The GI50 in the assay with NCI-H460 is 22.5 µM (inactive); in the assay with PC-3 it was 19.9 µM (inactive); in the assay with SF-539 it was 18.1 µM (inactive); in the assay with SK-MEL-2, 20.4 µM (inactive); in the assay with SN12C, 23.3 µM (inactive); with SNB-19 it was 20.3 µM (inactive). Further, the GI50 in the assay with TK-10 is 48.4 µM (inactive); in the assay on UACC-257, 36.6 µM (inactive).
For the compound `COc1ccc(C2OC(c3ccncc3)=NN2C)cc1OC` (stereo not given), the GI50 in the assay with 786-0 is > 100 µM (inactive); in the assay on COLO 205 it was > 100 µM (inactive); in the assay with HL-60 it was 96.8 µM (inactive); in the assay with IGROV-1, > 100 µM (inactive); with LOX IMVI it was > 100 µM (inactive); with M14, > 100 µM (inactive). Also, the GI50 with MCF7 is 71.3 µM (inactive); in the assay on MDA-MB-435, > 100 µM (inactive); in the assay on MDA-N, > 100 µM (inactive); in the assay with MOLT-4, 75.7 µM (inactive); in the assay on Malme-3M, > 100 µM (inactive); with NCI-H23, > 100 µM (inactive). Further, the GI50 was > 100 µM (inactive) in the assay with NCI-H460; 53.2 µM (inactive) with PC-3; > 100 µM (inactive) in the assay with SF-539; > 100 µM (inactive) in the assay with SK-MEL-2; > 100 µM (inactive) in the assay on SN12C; > 100 µM (inactive) in the assay with SNB-19. The GI50 was 79.4 µM (inactive) in the assay with TK-10 and > 100 µM (inactive) with UACC-257.
For `CC(=O)N(C)SCC(NC(=O)C(Cc1ccccc1)NC(=O)OCc1ccccc1)C(=O)NC(Cc1ccccc1)C(=O)NC(Cc1c[nH]c2ccccc12)C(=O)NC(CCCCNC(=O)OCc1ccccc1)C(=O)NC(C(=O)NC(CSN(C)C(C)=O)C(=O)NC(C(N)=O)C(C)OCc1ccccc1)C(C)OCc1ccccc1` (stereo not given) (Cbz-F[X30]FWK(Cbz)T(Bn)[X30]T(Bn)-NH2; configuration not given here), the GI50 was > 100 µM (inactive) in the assay with 786-0; > 100 µM (inactive) with COLO 205; > 100 µM (inactive) with HL-60; > 100 µM (inactive) in the assay on IGROV-1; 86.5 µM (inactive) in the assay on LOX IMVI; > 100 µM (inactive) with M14. Besides, the GI50 with MCF7 is 86.5 µM (inactive); in the assay with MDA-MB-435 it was > 100 µM (inactive); in the assay with MDA-N, > 100 µM (inactive); in the assay with MOLT-4, > 100 µM (inactive); with Malme-3M it was > 100 µM (inactive); with NCI-H23 it was > 100 µM (inactive). The GI50 in the assay on NCI-H460, with PC-3, in the assay on SF-539, in the assay with SK-MEL-2, with SN12C and in the assay with SNB-19 was > 100 µM (inactive) in each case. The GI50 in the assay with TK-10 and in the assay with UACC-257 was > 100 µM (inactive) throughout.
On to `CCOC(=O)C(=CNc1ccc(N(C2=NCC(C)S2)c2ccc(F)c(Cl)c2)cc1)C(=O)OCC` (stereo not given), for which the GI50 with 786-0 was 16.2 µM (inactive); in the assay on COLO 205, 17.8 µM (inactive); in the assay with HL-60, 24.7 µM (inactive); in the assay on IGROV-1 it was 20.5 µM (inactive); in the assay with LOX IMVI, 16.8 µM (inactive); with M14, 18.9 µM (inactive). Also, the GI50 in the assay with MCF7 was 12.8 µM (inactive); with MDA-MB-435, 24.1 µM (inactive); in the assay with MDA-N, 21.2 µM (inactive); in the assay on MOLT-4 it was 19.1 µM (inactive); in the assay on Malme-3M it was 20.8 µM (inactive); with NCI-H23, 17.5 µM (inactive). The GI50 in the assay with NCI-H460 was 23.6 µM (inactive); with PC-3, 22.4 µM (inactive); with SF-539, 25.6 µM (inactive); in the assay on SK-MEL-2, 20.4 µM (inactive); in the assay with SN12C, 17.9 µM (inactive); in the assay with SNB-19, 21.8 µM (inactive). Further, the values for the GI50 in the assay on TK-10 and in the assay on UACC-257 were 21.8 µM (inactive) and 17.1 µM (inactive), respectively.
Regarding `COC(=O)C1=C(OC)[C@H]2C#C/C=C\C#C[C@@H]3Nc4c(cc(O)c5c4C(=O)c4ccccc4C5=O)[C@]24O[C@@]34[C@H]1C`, the GI50 was < 0.01 µM (active) in the assay with 786-0; < 0.01 µM (active) in the assay with COLO 205; < 0.01 µM (active) in the assay with HL-60; < 0.0127 µM (active) in the assay on IGROV-1; < 0.01 µM (active) with LOX IMVI; < 0.01 µM (active) with M14. The GI50 with MCF7, with MDA-MB-435, in the assay on MDA-N, in the assay on MOLT-4, with Malme-3M and in the assay with NCI-H23 was < 0.01 µM (active) in each case. In addition, the GI50 in the assay with NCI-H460 was < 0.01 µM (active); in the assay with PC-3, < 0.01 µM (active); in the assay on SF-539, < 0.01 µM (active); in the assay with SK-MEL-2 it was 0.0585 µM (active); in the assay with SN12C, < 0.01 µM (active); in the assay on SNB-19 it was < 0.01 µM (active). Besides, the GI50 in the assay on TK-10 is 0.0327 µM (active); with UACC-257, < 0.01 µM (active).
